Test system: 941728-121-R-J1-PDC complex spheroid viability
Experiment: Anticancer human tumor 941728-121-R-J1-PDC patient-derived lung adenocarcinoma cell line growth inhibition [RAS]
Conditions: for IC50: curve of first compound; for viability, T/C: stronger effect = lower value
Method in brief: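 Tumour cells grown as complex spheroids with HUVEC endothelial cells and mesenchymal stem cells, treated with RAS pathway inhibitor combinations. Each agent spans half-log steps from near clinical Cmax, or 10 microM where Cmax is unknown.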
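Further: spheroids exposed to compounds for 7 days before readout.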
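Wherever viability, T/C is given: 100% = DMSO vehicle control viability.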

In the case of `CCC(CC)c1cc(NC2CCC(N)C2)n2nccc2n1` (configuration not stated) + C#Cc1c(F)ccc2cc(O)cc(-c3ncc4c(N5CC6CCC(C5)N6)nc(OCC56CCCN5CC(F)C6)nc4c3F)c12, the IC50 (second compound 0.0316 µM) is reported as 2100 nM, the IC50 (second compound 0.1 µM) is reported as 1970 nM and the IC50 (second compound 0.316 µM) is reported as 1470 nM. For the same compound, the IC50 (second compound 1 µM) was < 31.6 nM, the IC50 (second compound 3.16 µM) was < 31.6 nM and the IC50 (second compound 10 µM) was < 31.6 nM. For the same compound, the viability, T/C (second compound 0.0316 µM, first compound 0.0316 µM) was 96.6%, the viability, T/C (second compound 0.0316 µM, first compound 0.1 µM) was 82.6% and the viability, T/C (second compound 0.0316 µM, first compound 0.316 µM) was 91.4%. For the same compound, the viability, T/C (second compound 0.0316 µM, first compound 1 µM) was 90.5%, the viability, T/C (second compound 0.0316 µM, first compound 3.16 µM) was 19.2% and the viability, T/C (second compound 0.0316 µM, first compound 10 µM) was 36.7%. For the same compound, the viability, T/C (second compound 0.1 µM, first compound 0.0316 µM) was 96.1%, the viability, T/C (second compound 0.1 µM, first compound 0.1 µM) was 79% and the viability, T/C (second compound 0.1 µM, first compound 0.316 µM) was 78.5%. It also gave a viability, T/C (second compound 0.1 µM, first compound 1 µM) of 84.1%, a viability, T/C (second compound 0.1 µM, first compound 3.16 µM) of 20.8% and a viability, T/C (second compound 0.1 µM, first compound 10 µM) of 31.4%. The viability, T/C (second compound 0.316 µM, first compound 0.0316 µM) was 60.9%, the viability, T/C (second compound 0.316 µM, first compound 0.1 µM) was 83.7% and the viability, T/C (second compound 0.316 µM, first compound 0.316 µM) was 59.5%. For the same compound, the viability, T/C (second compound 0.316 µM, first compound 1 µM) was 63.1%, the viability, T/C (second compound 0.316 µM, first compound 3.16 µM) was 18.4% and the viability, T/C (second compound 0.316 µM, first compound 10 µM) was 29.7%. The viability, T/C (second compound 1 µM, first compound 0.0316 µM) was 40.1%, the viability, T/C (second compound 1 µM, first compound 0.1 µM) was 40.1% and the viability, T/C (second compound 1 µM, first compound 0.316 µM) was 41.4%. For the same compound, the viability, T/C (second compound 1 µM, first compound 1 µM) was 46.2%, the viability, T/C (second compound 1 µM, first compound 3.16 µM) was 18.7% and the viability, T/C (second compound 1 µM, first compound 10 µM) was 32.7%. For the same compound, the viability, T/C (second compound 3.16 µM, first compound 0.0316 µM) was 31.5%, the viability, T/C (second compound 3.16 µM, first compound 0.1 µM) was 33.1% and the viability, T/C (second compound 3.16 µM, first compound 0.316 µM) was 37.6%. It also gave a viability, T/C (second compound 3.16 µM, first compound 1 µM) of 35.8%, a viability, T/C (second compound 3.16 µM, first compound 3.16 µM) of 15.3% and a viability, T/C (second compound 3.16 µM, first compound 10 µM) of 34.3%. It also gave a viability, T/C (second compound 10 µM, first compound 0.0316 µM) of 23.2%, a viability, T/C (second compound 10 µM, first compound 0.1 µM) of 25.9% and a viability, T/C (second compound 10 µM, first compound 0.316 µM) of 27.2%. For the same compound, the viability, T/C (second compound 10 µM, first compound 1 µM) was 25.6%, the viability, T/C (second compound 10 µM, first compound 3.16 µM) was 11.4% and the viability, T/C (second compound 10 µM, first compound 10 µM) was 25.6%.

From PubChem BioAssay AID2060896 (Molecular Pharmacology Branch, DTP, NCI, 2025)
